Data from US20060148714A1, “Therapeutic peptide-based constructs” (priority 1999, published 2006).
≈ marks a conversion by molar mass, not a printed value. Where a SMILES comes first, the peptide text is derived from it. [ ]: non-standard residue; d: D form. d1Nal = N[C@H](Cc1cccc2ccccc12)C(=O)O

Experiments:
[1] = tested on: Factor Xa neutralization by ATIII/heparin complexes; experiment: Chromostrate heparin anti-Factor Xa assay (heparin neutralization); assay type: biochemical; conditions: absorbance at 405 nm
Method: A Chromostrate™ assay was used to determine the effect of peptide-based constructs, including derivatized constructs, and the effect protamine sulfate (as a positive control) on Factor Xa neutralization by ATIII/heparin complexes. The assay was conducted using a Chromostrate™ heparin anti-Factor Xa assay kit (Organon Teknika Corp., Durham, N.C.). Heparin concentration was varied so that a heparin standard curve was generated. The assay measured the potentiating effect of heparin on anti-Xa activity in vitro. Solution containing heparin is incubated in the presence of ATIII with an excess of Factor Xa, forming an ATIII-Heparin-Xa complex. The remaining Xa catalyzes the release of p-nitroaniline (pNA) from the chromogenic substrate. The release of p-nitroaniline is measured at 405 nm. The absorbance obtained in inversely porportional to the concentration of heparin in the sample.
Reagents for the assay are prepared as follows. Heparin, peptide-based constructs and protamine sulfate stocks are made in saline. Stock solutions are approximately 1 mg/mL=1 μg/μL. Factor Xa reagent and substrate reagent are reconstituted with 2.0 mL purified water. Antithrombin III (ATIII) reagent is reconstituted with 1.0 mL purified water. The assay is performed in 96 well microtiter plates. Assay components are added to the microtiter wells as follows: 12.5 μl of heparin (from 0 to 10 U/mL), 25 μl of construct or protamine sulfate, 12.5 μL of ATIII (0.5 PEU/mL), 25 μL of bovine Factor Xa (14 nKat/mL), 25 μL substrate (3 μmoles/mL). The reaction is allowed to proceed for 20 minutes and then 25 μL of 0.1 M acetic acid is added. The color reaction is quantitated on a microplate reader at 405 nm. Constructs that neutralize heparin show an increase in the absorbance at 405 nm. Protamine is used as a positive control and its activity is designated as 100%. The percent (%) heparin neutralization for each peptide construct is calculated relative to the neutralization by protamine (100%), and shown in Table IV.

[2] = tested on: human umbilical vein endothelial cells (HUVEC); assay type: cell-based; conditions: for IC50 values, additional assays: HUVEC proliferation, purified constructs, said to be comparable to Table II (μg/mL); for IC50: 72 h
Method: Briefly, human umbilical vein endothelial cells (HUVEC) were cultured in EGM-2 medium (Clonetics Corp., San Diego, Calif.), harvested and plated onto a 96-well culture plate. After 24 hours of quiescence, the cells were co-cultured with various peptide-based constricts in the presence of growth factors for 72 hours to test their activity. Cell proliferation was quantitated by tritiated thymidine incorporation into DNA and was expressed in counts per minute (cpm).
Details of the experimental procedures were as follows: HUVEC cells were cultured in EGM-2 media from Clonetics Corp., a subsidiary of BioWhittaker, Inc., San Diego, Calif. [EGM-2 is Endothelial Cell Basal Medium-2 (EMB-2) supplemented with growth factors (hFGF-B, VEGF, IGF-1, hEGF) ascorbic acid, heparin, GA-1000 and 2% FBS), in T75 flasks until confluent (˜4-7 days). Cells were harvested by trypsinizing the cells using 0.025% trypsin/EDTA for 5 minutes. To stop the reaction, 2-5% FBS was added. The cells were centrifuged and washed 3 times using Hank's Balanced Salt Solution (HBSS) or Dulbecco's Phosphate Buffered Saline D-PBS. The pellet was then resuspended in EBM-2 supplemented with 0.1% FBS and GA-1000 was used. The cells were counted and a cell suspension was prepared at 2×10^5/mL in EBM-2 with 0.1% FBS; cells were dispensed into a 96-well flat bottomed culture plate at 0.1 mL/well (total: ˜20,000 cells/well in 0.1% FBS-EBM-2). Incubation continued at 37° C. in 5% CO2 for 20-24 hours. The next day peptide-based constructs were prepared for testing in a 96 well plate. The supernatant was aspirated from the cell-well, replaced with EBM-2 or the testing reagent at 20 μL/well. Then, 180 μL/well of 1.12% FBS-GFS were added to make a final concentration of 1% FBS-GFS in EBM-2. This aspiration and addition was done well-by-well. ^3H-thymidine (100 μCi/mL) was added at 10 μL/well (1 μCi/well, final). Incubation continued at 37° C., 5% CO2 for 72 hours. To harvest the plate, the supernatant was aspirated off from the cell-well and then 75 μL-100 μL/well of 0.025% trypsin-EDTA was added. After incubation for 8-10 minutes at room temperature in the hood, the cells were checked and 100 μL/well of 2-5% FBS-PBS was added to stop the reaction. The plate was then harvested, dried and counted using an Inotech cell harvester (Inotech Biosystems, INB-384, Sample Processing and Filter Counting System, Lansing, Mich.).

[3] = tested on: bFGF-induced angiogenesis; experiment: In vivo Matrigel angiogenesis assay (hemoglobin content of excised gel); conditions: 10 μg peptide construct per gel; hemoglobin of gel excised ten days after s.c. injection; C57BL/6J mice
Method: For these experiments, peptide-based constructs according to the invention were assayed for their ability to inhibit heparin-induced angiogenesis in vivo in mice. Basement membrane matrix (Matrigel®, Becton Dickinson Labware, Mountain View, Calif.) was thawed and maintained at 4° C. and angiogenic factors were added to the gel in the liquid state generally as described in Passaniti et al., 1992, Lab. Invest. 67: 519-528. Heparin sodium (Sigma, St. Louis, Mo.) was dissolved in sterile PBS to various concentrations ranging from 1,250-10,000 U/mL, and used in these experiments at 8,000 U/mL. Human recombinant basic fibroblast growth factor (bFGF; Sigma) was reconstituted into 1. % BSA in PBS to 25 μg/mL. A volume of 2.5 μL dissolved heparin solution and 4.0 μL recombinant bFGF were added to 0.5 mL Matrigel® mixture per mouse injection. Peptide-based constructs were added to this Matrigel® mixture at varying concentrations ranging from 0.5 to 50 μg/mL (final concentration) in 10 μL/0.5 mL Matrigel® aliquot per experimental animal. Ten μL sterile PBS was substituted for peptide-based constructs in Matrigel® aliquots injected into control animals.
Female C57BL/6J mice (Jackson Laboratory, Bar Barbor, Me.) at 6-8 weeks of age (maintained under NIH guidelines) were injected subcutaneously down the dorsal midline with 0.5 mL aliquots of Matrigel® prepared as described above. Ten days after injection, the Matrigel® gels were excised and placed in Drabkin's reagent (Sigma). Total protein and hemoglobin content can be determined for the gels stored in Drabkin's reagent after mechanical homogenization of the gels. Hemoglobin concentration was measured using Sigma Procedure #525 and reagents supplied by Sigma (St. Louis, Mo.) to be used with this procedure. If desired, total protein levels are determined using a microplate assay that is commercially embodied in a kit (DC Protein Assay, Bio-Rad, Richmond, Calif.).
Gels to be used for histological staining are formalin-fixed immediately after excision from the animals rather than being placed in Drabkin's reagent. Formalin-fixed gels are embedded in Tissue-Tek O.C.T. compound (Miles, Inc., Elkhart, Ind.) for frozen sectioning. Slides of frozen sections are stained with hematoxylin and eosin (as described by Humason, 1979, Animal Tissue Techniques, 4th Ed. W.H. Feeman & Co., San Francisco, Calif., Ch. 9, pp. 111-131). The effect of peptides are detected by microscopic examination of frozen stained sections for inhibition of angiogenesis relative to Matrigel® gel slices prepared without added peptides. The extent of angiogenesis inhibition is quantitated using the normalized amounts of hemoglobin found in BPI peptide-containing gel slices.
Data are presented as the means of triplicate determinations of hemoglobin concentrations from the excised gel (ISEM) with ten mice per group.

[4] = tested on: LPS; experiment: RAW cell assay of LPS neutralization; assay type: cell-based
[5] = tested on: E. coli (J5 and 0111 B4), Staphylococcus aureus and Candida albicans; experiment: Broth and/or radial diffusion antimicrobial assays; assay type: cell-based
Description: Assays useful for testing a variety of biological activities of BPI protein products, including BPI-derived peptides, are described in co-owned U.S. Pat. Nos. 5,733,872; 5,763,567; 5,652,332; and 5,856,438 and corresponding PCT Publication Nos. WO 94/20532 (PCT/US94/02465) and WO 95/19372 (PCT/US94/10427) and U.S. Pat. No. 5,858,974 and corresponding PCT Publications Nos. WO 96/08509 (PCT/US95/09262) and WO 97/04008 (PCT/US96/03845), incorporated herein by reference. These activities include antimicrobial (including antibacterial and antifungal), LPS binding, LPS neutralization and additional assays of heparin binding as well as heparin neutralization.

| SMILES | Assay A: percent heparin neutralization relative to protamine (100%) [1] | Assay B: percent heparin neutralization relative to protamine (100%) [1] | IC50 values, additional assays [2] | % Inhibition [3] | LPS neutralization activity [4] | IC50 [2] | antimicrobial activity [5] |
| --- | --- | --- | --- | --- | --- | --- | --- |
| CC[C@@H](C)[C@@H](NC(=O)[C@@H](CO)NC(=O)CNC(=O)[C@@H](CCCCN)NC(=O)[C@@H](Cc1cccc2ccccc12)NC(=O)[C@@H](CCCCN)NC(=O)[C@@H](C)NC(=O)[C@@H](CCC(N)=O)NC(=O)[C@@H](Cc1cccc2ccccc12)NC(=O)[C@@H](CCCNC(=N)N)NC(=O)[C@@H](Cc1ccccc1)NC(=O)[C@@H](CC(C)C)NC(=O)[C@H](N)CCCCN)C(=O)N[C@H](CCCCN)C(N)=O [XMP.624, k-l-f-r-(naph-a)-q-a-k-(naph-a)-k-g-s-i-k] (H-[dK][dL][dF][dR][d1Nal][dQ][dA][dK][d1Nal][dK]G[dS][dI][dK]-NH2) | 131% | 94% | 4.9 ±0.5 | 51.9% | showed activity | – | – |
| CC(C)C[C@@H](NC(=O)[C@H](N)CCCCN)C(=O)N[C@H](Cc1ccccc1)C(=O)N[C@H](CCCNC(=N)N)C(=O)N[C@H](Cc1cccc2ccccc12)C(=O)N[C@H](CCC(N)=O)C(=O)N[C@H](C)C(=O)N[C@H](CCCCN)C(=O)N[C@H](Cc1cccc2ccccc12)C(=O)N[C@H](CCCCN)C(=O)NCC(N)=O [XMP.627, k-l-f-r-(naph-a)-q-a-k-(naph-a)-k-g] (H-[dK][dL][dF][dR][d1Nal][dQ][dA][dK][d1Nal][dK]G-NH2; N-terminus assumed) | 98% | 62% | – | 77.6% | – | 5.8 ± 0.7 µg/mL (≈ 3.95 µM) | highest antimicrobial activities |
| CC(C)C[C@@H](NC(=O)[C@H](N)CCCCN)C(=O)N[C@H](Cc1ccccc1)C(=O)N[C@H](CCCNC(=N)N)C(=O)N[C@H](Cc1cccc2ccccc12)C(=O)N[C@H](CCC(N)=O)C(=O)N[C@H](C)C(=O)N[C@H](CCCCN)C(=O)N[C@H](Cc1cccc2ccccc12)C(N)=O [XMP.629, k-l-f-r-(naph-a)-q-a-k-(naph-a)] (H-[dK][dL][dF][dR][d1Nal][dQ][dA][dK][d1Nal]-NH2; N-terminus assumed) | 69% | 49% | – | 30.8% | showed activity | – | highest antimicrobial activities |
| CC(C)C[C@@H](NC(=O)[C@H](N)CCCCN)C(=O)N[C@H](Cc1ccccc1)C(=O)N[C@H](CCCNC(=N)N)C(=O)N[C@H](Cc1cccc2ccccc12)C(=O)N[C@H](CCC(N)=O)C(=O)N[C@H](C)C(=O)N[C@H](CCCCN)C(N)=O [XMP.630, k-l-f-r-(naph-a)-q-a-k] (H-[dK][dL][dF][dR][d1Nal][dQ][dA][dK]-NH2; N-terminus and C-terminus assumed) | 2.3% | 0.5% | > 50 | 49.6% | – | >25 µg/mL | – |
